Experimental data: patent US20210113540A1, “TREATMENT AGENT AND PHARMACEUTICAL COMPOSITION FOR GLIOMA” (NATIONAL UNIVERSITY CORPORATION HOKKAIDO UNIVERSITY, priority 2018, published 2021)
Like-named read-outs stand apart in the source and are kept apart here. Values belong to the compound of their own block, whether it stands above or below them.

Legend:
SOX2 in GICs (E6) = assay: SOX2 immunostaining, SOX2/DAPI positive rate in GICs (E6); assay type: cell-based, human; details: 20 μmol/L OSMI-1, cultured 2 days; control 71±2%
Experimental: (§1) The extranuclear elimination of compound 8-dependent SOX2 is dependent on the extranuclear transport factor, Exportin (also known as CRM1). The cells were cultured for one day in the presence of Compound 8 (10 μM) and a CRM1-specific inhibitor leptomycin B (LMB, 150 nM), and GICs were immunostained with the SOX2 antibody. As a result, the SOX2/DAPI positive rate in GICs (E6) was as follows: Control: 95±2%, supplemented with Compound 8: 7±3%, supplemented with Compound 8+LMB: 87±9%; the SOX2/DAPI positive rate in GICs (E16) was as follows: Control: 72±11%, supplemented with compound 8: 0.5±1%, supplemented with Compound 8+LMB: 81±10%. The addition of LMB suppressed Compound 8-dependent extranuclear elimination of SOX2.
(§2) When UDP-GlcNAc was added after the chemical was added to GIC, reduced SOX2 expression in GICs and the cytotoxic activity of Compound 8 on GICs were neutralized (FIGS. 3 and 4). SOX2 K75A in which lysine 75 involved in the binding of CRM1 and SOX2 was substituted with alanine and SOX2 S248A in which the 0-GlcNAcylation target serine 248 was substituted with alanine were prepared, thereby establishing GICs that constitutively express these SOX2 mutants and wild-type SOX2 (SOX2 wt). After treatment with Compound 8, the localization of SOX2 was examined by immunostaining using an anti-FLAG antibody, and the viability of GICs expressing these mutants was examined by MTT assay (FIG. 5). In the presence of Compound 8, SOX2 K75A was present in the nucleus and partially neutralized the cytotoxic activity of Compound 8. SOX2 S248A was not retained in the nucleus by treatment with Compound 8, and no inhibitory effect on cytotoxic activity was observed. […] The SOX2/DAPI positive rate was as follows: GIC (E6): Control: 0%, SOX2 wt: 36±5%, SOX2 K75A: 63±5%, SOX2 S248A: 18±2%; GIC (E16): Control: 0%, SOX2 wt: 22±4%, SOX2 K75A: 58±6%, SOX2 S248A: 15±3%. Error bar: ±SD. Statistical processing is t-test. *P<0.05, **P<0.01, ***P<0.001. GIC was cultured for 2 days with Compound 8 (10 μmol/L) alone or together with UDP-GlcNAc (1 mmol/L), and immunostaining was performed for SOX2 and NESTIN. As a result, the addition of UDP-GlcNAc suppressed Compound 8-dependent extranuclear elimination of SOX2.
(§3) OSMI-1, which is an O-GlcNAc transferase (OGT)-specific inhibitor, suppresses GIC growth and SOX2 expression. (A) GICs were cultured for 3 days in the presence of various concentrations of OSMI-1, and cell growth was examined using MTT assay (FIG. 6). (B) The results of immunostaining for SOX2 and NESTIN using GICs cultured for 2 days in the presence of 20 μmol/L OSMI-1 and calculating the SOX2 positive rate (SOX2/DAPI) are shown below.

GICs = assay: GIC growth in the presence of OSMI-1 (MTT assay); assay type: cell-based, human; details: cultured 3 days, various concentrations of OSMI-1, FIG. 6
Experimental: as §3

SOX2 in GICs (E16) = assay: SOX2 immunostaining, SOX2/DAPI positive rate in GICs (E16); assay type: cell-based, human; details: 20 μmol/L OSMI-1, cultured 2 days; control 65±5%
Experimental: as §1, §2, §3

[1] = tested on: Glioma-initiating cell E6R; assay: Cell growth test (MTT) on GICR strain E6R; assay type: cell-based; details: Homo sapiens, 72 h
Experimental: GICR strain: Cell growth test was performed using E6R (Stem Cells. 2016 August; 34(8):2016-25.).
(§4) Cell culture solutions were obtained by mixing a medium prepared by adding various compounds, bFGF (Peprotech, 100-18B) and EGF (Peprotech, 100-15) to DMEM/Ham's F-12 medium (SIGMA, D8062) and a medium prepared by adding FCS (Hyclone, SH30910.03) to DMEM medium (Nacalai tesque, 08458-45) to a concentration of 10% for use.
(§5) Each compound adjusted to a predetermined concentration was dispensed into a 96-well plate (Falcon, 353072) at 80 μL/well, and E6 cells and E6R cells were seeded on the 96-well plate at 1000 cells/80 μL/well. After 3 days, 10 μL of an MTT reagent (DOJINDO, 341-01823) was added, the cells were incubated at 37° C. for 3 hours, the culture solution was removed, and 100 μL of DMSO was added. The absorbance at 570 nm was measured using Bio-Rad iMark (Bio-Rad, 168-1130JA). The growth inhibition rate at each test compound concentration was calculated by the following formula using the absorbance as an index of the viable cell count.
(§6) The growth inhibition rate at each compound concentration was determined, and the 50% growth inhibition concentration GI50 (μmol/L)] was calculated using XLfit. Growth inhibition rate (%)=(Amount of luminescence from wells supplemented with test compound)/(Amount of luminescence from wells supplemented with DMSO)×100
(§7) GIC and GICR strain: Cell growth test was performed using E6, E6R, E16, and E16R (Stem Cells. 2016 August; 34(8): 2016-25.).

[2] = tested on: Glioma-initiating cell E16R; assay: Cell proliferation test (MTT) on GICR strain E16R; assay type: cell-based; details: Homo sapiens, 72 h, MTT after 3 days
Experimental: as §7, §4, §5, §6

[3] = tested on: Glioma-initiating cell E6; assay: Cell proliferation test (MTT) on GIC strain E6; assay type: cell-based; details: Homo sapiens, 72 h, MTT after 3 days
Experimental: as §7, §4, §5, §6

[4] = tested on: Glioma-initiating cell E16; assay: Cell proliferation test (MTT) on GIC strain E16; assay type: cell-based; details: Homo sapiens, 72 h, MTT after 3 days
Experimental: as §7, §4, §5, §6

recombinant human DHODH = target: T1, recombinant human DHODH (Homo sapiens, UniProt Q02127); assay: DHODH enzyme assay (DCIP quenching); assay type: biochemical; details: pH 8.0, DCIP absorbance 600 nm, 50 minutes; read-out: DHODH enzyme inhibition IC50
T1 construct: DHODH, 31-395aa, Human, His tag, E. coli, ATGP1615; His tag; purchased ATGen ATGP1615; host or cells: E. coli
Experimental: For DHODH enzyme assay, “Benjamin Bader, Wolfgang Knecht, Markus Fries, and Monika Löffler. Expression, Purification, and Characterization of Histidine-Tagged Rat and Human Flavoenzyme Dihydroorotate Dehydrogenase. Protein Expression and Purification, 1998, 13, 414-422” was referred to.
DHODH activity was evaluated using an enzyme assay system that couples with an assay in a blue-coloring dye 2,6-dichlorophenol indophenol (DCIP, MP BIOMEDICALS, MP150118) quenching assay. Purified recombinant human DHODH (DHODH, 31-395aa, Human, His tag, E. coli, ATGP1615) was purchased from ATGen. […] Enzyme activity was assessed by measuring the decrease in DCIP absorbance (600 nm) for 50 minutes using an Envision plate-reading spectrophotometer (PerkinElmer Co., Ltd.). […]
Enzyme reaction inhibition rate (%)=(Amount of luminescence from wells supplemented with test compound)/(Amount of luminescence from wells supplemented with DMSO)×100

[5] = MTT after 3 days, read-out: ER6 GI50
[6] = class of ER6 GI50, MTT after 3 days, read-out: Evaluation

T1 sequence (Q02127 31-395): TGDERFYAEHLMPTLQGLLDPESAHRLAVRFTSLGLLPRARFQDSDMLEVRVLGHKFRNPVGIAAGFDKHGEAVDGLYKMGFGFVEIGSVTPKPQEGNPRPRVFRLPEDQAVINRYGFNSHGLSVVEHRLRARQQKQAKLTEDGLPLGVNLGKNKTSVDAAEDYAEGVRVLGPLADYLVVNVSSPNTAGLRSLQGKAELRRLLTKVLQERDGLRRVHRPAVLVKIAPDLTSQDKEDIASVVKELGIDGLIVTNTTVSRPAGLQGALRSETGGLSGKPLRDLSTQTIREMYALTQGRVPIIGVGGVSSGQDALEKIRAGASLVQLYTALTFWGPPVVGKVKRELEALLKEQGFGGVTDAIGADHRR

- GI50 [1, 5]: 0.62 nmol/L
- GI50 [1, 6]: < 1000 nmol/L
SMILES: Cn1ccc2cc(Nc3ncc(C4CC4)cc3C(=O)O)cc(-c3ccc(Cl)cc3)c21 [Compound 18, 2-((7-(4-chlorophenyl)-1-methyl-1H-indole-5-yl)amino)-5-cyclopropylnicotinic acid]

- GI50 ([2]; read-out: GI50 (nmol/L) of Glioma-initiating cell E16R): 1960 nmol/L
- GI50 ([2]; read-out: GI50 class of Glioma-initiating cell E16R): 1000 to 10000 nmol/L
- GI50 ([3]; read-out: GI50 (nmol/L) of Glioma-initiating cell E6): 100 nmol/L
- GI50 ([3]; read-out: GI50 class of Glioma-initiating cell E6): < 1000 nmol/L
- GI50 ([1]; MTT after 3 days, read-out: GI50 (nmol/L) of Glioma-initiating cell E6R): 655 nmol/L
- GI50 ([1]; MTT after 3 days, read-out: GI50 class of Glioma-initiating cell E6R): < 1000 nmol/L
- GI50 ([4]; read-out: GI50 (nmol/L) of Glioma-initiating cell E16): 11800 nmol/L
- GI50 ([4]; read-out: GI50 class of Glioma-initiating cell E16): ≥ 10000 nmol/L
- IC50 (recombinant human DHODH): 28.6 nM
SMILES: O=C(O)c1cc(C2CC2)cnc1Nc1ccc2c(ccn2Cc2cccc(F)c2)c1 [Compound 21, 5-cyclopropyl-2-((1-(3-fluorobenzyl)-1H-indole-5-yl)amino)nicotinic acid]

- GI50 [1, 5]: 47.6 nmol/L
- GI50 [1, 6]: < 1000 nmol/L
SMILES: O=C(O)c1cc(C2CC2)cnc1Nc1c(F)cc2c(ccn2Cc2ccccc2)c1F [Compound 14, 2-((1-benzyl-4,6-difluoro-1H-indole-5-yl)amino)-5-cyclopropylnicotinic acid]

More lines, now with the values behind:

SMILES: COc1ccccc1[C@@H](NS(=O)(=O)c1ccc2[nH]c(=O)ccc2c1)C(=O)N(Cc1ccco1)Cc1cccs1 [OSMI-1, reference compound]
- SOX2 positive rate (SOX2/DAPI), GIC (E6) (SOX2 in GICs (E6)): 32±4%
- GIC growth (GICs): suppresses
- SOX2 positive rate (SOX2/DAPI), GIC (E16) (SOX2 in GICs (E16)): 30±5%

SMILES: O=C(O)c1cc(C2CC2)cnc1Nc1cccc2c1ccn2-c1ccccc1 [Compound 3, 5-cyclopropyl-2-((1-phenyl-1H-indole-4-yl)amino)nicotinic acid]
- GI50 [1, 5]: 11 nmol/L
- GI50 [1, 6]: < 1000 nmol/L
